The source of these data is patent publication US10544460B2, “Homeobox transcription factor ventx regulates differentiation and maturation of human dendritic cells” (priority 2013, dated 2020).

The test system of series [1] is VentX. The experiment in a line: VentX knockdown efficiency in monocytes / monocyte-derived DCs. The class given is cell-based, human. To be noted: 5 days after transfection. An excerpt: Following a recent finding that VentX is expressed in human primary monocytes, VentX expression was examined during primary monocytes to dendritic cells differentiation induced by GM-CSF and IL-4 treatment. […] To explore potential role of VentX in DC differentiation, the effects of VentX knockdown on in vitro DCs differentiation were examined. […] (Iwamoto, et al. 2007 J Immunol 179(3): p. 1449-57; Gabriele, et al. 2004 Blood 103(3): p. 980-7.) To obtain a long-lasting knockdown effect of VentX in monocytes, a morpholino (MO) mediated VentX knockdown strategy was developed. Two different morpholino antisense oligonucleotides were designed (VentX MO and VentX MO-2) and tested for the knockdown efficiency of VentX. […] Freshly isolated CD14^+CD1a^− monocytes differentiate in vitro into immature CD14^−CD1a^+ DCs when cultured with GM-CSF and IL-4. […] To corroborate the role of VentX in regulating DCs differentiation, VentX was ectopically expressed in primary monocytes and the CD14^−CD1a^+ cells were determined after 3 days of cytokines treatment. […]
(§1) Dendritic & Antigen Presenting Cell PCR Array was purchased from SABiosciences (Valencia, Calif.). […] (Wu, et al. 2011 J Clin Invest 121(7): p. 2599-613.) Incorporated BrdU was detected with PE-conjugated anti-BrdU antibody and analyzed with flow cytometry.

A further series concerns human primary monocytes. The experiment in a line: Primary monocyte to dendritic cell differentiation induced by GM-CSF and IL4 (flow cytometry of surface antigens). Format: cell-based. The method, then: Peripheral blood mononuclear cells (PBMC) from healthy adult donors at Dana-Farber Cancer Institute were isolated by Ficoll density gradient centrifugation. CD14^+ monocytes were purified from PBMCs using anti-CD14 antibody coated magnetic microbeads (Miltenyi Biotec, Auburn, Calif.). Monocytes were cultured in 12-well plates at 1×10^6 cells/ml with RPMI 1640 medium containing 10% fetal bovine serum (FBS), GM-CSF (100 ng/ml) and IL4 (20 ng/ml) (PeproTech, Rocky Hill, N.J.). Cytokines were added to cultures every 2 or 3 days for a total of 5 days to induce dendritic cells differentiation. Neutralizing antibody against IL6 was purchased from R&D Systems (Minneapolis, Minn.) and used at daily dose of 2.5 μg/ml. Intestinal mucosa was obtained from surgically resected specimens from patients diagnosed with inflammatory bowel diseases including Crohn's disease and ulcerative colitis. Specimens were taken from both inflamed and non-inflamed mucosa and were confirmed macroscopically and microscopically. Lamina propria mononuclear cells were isolated using previously described techniques. (Dillon, et al. 2010 J Immunol 184(12): p. 6612-21; Kamada, et al. 2008 J Clin Invest 118(6): p. 2269-80.) LPDCs were purified as the fraction of CD19^−CD1c^+ cells with magnetic microbeads (Miltenyi Biotec). To promote maturation of DCs, 100 ng/ml of E Coli LPS (Sigma-Aldrich) was added to the medium and further cultured for 24 hours. Experiments with human materials were performed in accordance with guidelines approved by the institutional review committee of Brigham and Women's Hospital. […]
Phenotypic analyses of DCs and THP1 cells were performed with flow cytometry after immunostaining of cells with fluorescence dye conjugated antibodies (eBioscience, San Diego, Calif.). […] Stained cells were analyzed with FACScan flow cytometer (BD Bioscience) using FlowJo software. Results are expressed as the percentage of positive cells or mean fluorescence intensity (MFI) values after subtraction of the MFI obtained from the isotype control antibody.
Background: A flow cytometer gives signals particle by particle.

The next series deals with DCs. Format: cell-based, human. The conditions noted are these: after MO transfection; data not shown. An excerpt:
Following a recent finding that VentX is expressed in human primary monocytes, VentX expression was examined during primary monocytes to dendritic cells differentiation induced by GM-CSF and IL-4 treatment. […] To explore potential role of VentX in DC differentiation, the effects of VentX knockdown on in vitro DCs differentiation were examined. […] (Iwamoto, et al. 2007 J Immunol 179(3): p. 1449-57; Gabriele, et al. 2004 Blood 103(3): p. 980-7.) To obtain a long-lasting knockdown effect of VentX in monocytes, a morpholino (MO) mediated VentX knockdown strategy was developed. Two different morpholino antisense oligonucleotides were designed (VentX MO and VentX MO-2) and tested for the knockdown efficiency of VentX. […] Freshly isolated CD14^+CD1a^− monocytes differentiate in vitro into immature CD14^−CD1a^+ DCs when cultured with GM-CSF and IL-4. (Bell, et al. 2001 J Immunol 166(8): p. 4958-67.) Surface expression of CD1a antigen was examined in monocytes transfected with control MO or VentX MO respectively. […] To corroborate the role of VentX in regulating DCs differentiation, VentX was ectopically expressed in primary monocytes and the CD14^−CD1a^+ cells were determined after 3 days of cytokines treatment. Overexpression of VentX in monocytes greatly accelerated the DCs differentiation (FIG. 1E-F).

The next series concerns IL6. The experiment in a line: Cytokine expression in transfected monocytes (reverse transcription PCR and intracellular staining). Format: cell-based, human. The method, then: To elucidate the mechanisms underlying VentX regulated DCs differentiation and maturation, expression level of cytokines known to be important for DCs development was analyzed by reverse transcription PCR and intracellular staining. […] It has been shown that IL6 inhibits DC differentiation and maturation from both CD14^+ monocytes and CD34^+ progenitor cells. […] The effect of VentX on the activity of […] IL6 promoter luciferase reporter and several deletion mutant constructs was assessed. […] To address this question, neutralizing antibody against IL6 was added to the culture medium of VentX MO transfected monocytes and differentiation of DCs was assessed through flow cytometry analysis of CD1a surface expression.
Phenotypic analyses of DCs and THP1 cells were performed with flow cytometry after immunostaining of cells with fluorescence dye conjugated antibodies (eBioscience, San Diego, Calif.). […] Stained cells were analyzed with FACScan flow cytometer (BD Bioscience) using FlowJo software. Results are expressed as the percentage of positive cells or mean fluorescence intensity (MFI) values after subtraction of the MFI obtained from the isotype control antibody. […]

The subject of series [2] is VentX. The experiment in a line: VentX expression in LPDCs treated with prednisolone (real time PCR). To be noted: prednisolone 10 μg/ml, 48 hours, vs mock treated; FIG. 6F. The class given is cell-based, human. As to the method:
(§2) FIG. 6: VentX is required for the maturation of lamina propria DCs. (A) LPDCs were isolated from inflamed and non-inflamed intestinal mucosa of five IBD patients. VentX level was determined with real time PCR. (B) LPDCs were transfected with siRNA targeting VentX or control GFP through electroporation followed by culturing in medium for two days. Then cells were stimulated with LPS for overnight to induce maturation and harvested for flow cytometry analysis of surface markers and intracellular cytokines/chemokines. Filled histograms indicate siGFP transfection. […] Results are expressed as the percentage of MFI normalized to control. […] (D) LPDCs transfected with siGFP or siVentX were analyzed for the mRNA expression levels of indicated genes. […] (F) DCs were treated with prednisolone (10 μg/ml) for 48 hours or mock treated, and VentX level was determined with real time PCR. […]
(§3) Aberrant activation of DCs has been implicated in mucosal inflammation in pathogenesis of inflammatory bowl diseases. […] VetnX expression levels in these DCs were determined by RT-PCR methods. […]
as §1
In general terms: Quantitative PCR measures a nucleic acid by following its amplification.

For another series, the system named is LPDCs. The series is described as follows: Pro-inflammatory cytokine mRNA in DCs treated with prednisolone and LPS. The conditions noted are these: prednisolone, LPS added 24 hours later, harvested at 48 hours, FIG. 6G. Format: cell-based, human. As to the method:
as §2, §3, §1

Regarding “5′-TACTCAACCCTGACATAGAGGGTAA-3′ (morpholino, further chemistry not given here) [VentX MO, Morpholino antisense oligonucleotide targeting VentX]”, in the series with VentX [1], the “VentX expression in DCs compared with control sequence” value is listed as “inhibited VentX expression”. Besides, the “expression of CD16, CD36, CD64, mannose receptor (MR) and TLR4” value with human primary monocytes (MO transfected DCs) was “remained unchanged”. Moreover, the “percentage of CD14-CD1a+ cells” value in the series on human primary monocytes (monocytes + GM-CSF and IL4, 5 days, in comparison with control MO, FIG. 1A-B) is “substantial reduction”. Further, the “surface expression of CD1b, CD1c and CD11c” value in the series on human primary monocytes (monocytes + GM-CSF and IL4, 5 days, vs control MO) is reported as “similarly downregulated”. In addition, the “cell death in DCs” value in the series on DCs is given as “did not cause excess cell death”. In the series on IL6 (MO transfected cells, data not shown), the “IL1β, TNFα and IL10 expression” value was “no apparent changes”. Also, the IL6 expression result in the series on IL6 (monocytes + GM-CSF and IL4, 5 days, mRNA and intracellular level, FIGS. 3A and C) is reported as “consistently increased”.
For the molecule `C[C@]12C=CC(=O)C=C1CC[C@@H]1[C@@H]2[C@@H](O)C[C@@]2(C)[C@H]1CC[C@]2(O)C(=O)CO` [prednisolone], the “VentX expression in LPDCs” value in the series with VentX [2] is listed as “dramatically decreased”. Besides, in the series with LPDCs, the “expression of pro-inflammatory cytokines, such as the IL2, TNF, CCL5” value is listed as “dramatically decreased”.
Regarding “5′-GAGCCCGGTTTGCATACACGGCTAA-3′ (morpholino, further chemistry not given here) [VentX MO-2, Morpholino antisense oligonucleotide targeting VentX]”, the “VentX expression in DCs compared with control sequence” value in the series with VentX [1] is “inhibited VentX expression”.
